# US20060287251A1, “Combination therapy for glycaemic control” (priority 2003, published 2006)
# Assays:
# Assay type in all cases: biochemical
# [1] = target: T1, dipeptidyl peptidase IV from porcine kidney (Sus scrofa, UniProt P22411); experiment: Ki-determination, DP IV from porcine kidney; settings: substrate glycylprolyl-4-nitroaniline, 30 °C, pH 7.6, competitive inhibition
# T1 construct: dipeptidyl peptidase IV from porcine kidney with a specific activity against glycylprolyl-4-nitroaniline of 37.5 U/mg; from tissue; host or cells: porcine kidney
# Protocol: For Kidetermination of glutaminyl pyrrolidine and glutaminyl thiazolidine, dipeptidyl peptidase IV from porcine kidney with a specific activity against glycylprolyl-4-nitroaniline of 37.5 U/mg and an enzyme concentration of 1.41 mg/mL in the stock solution was used.
# 100 μL glutaminyl pyrrolidine or glutaminyl thiazolidine in a concentration range of 1*10^−5 -1*10^−7 M (glutaminyl pyrrolidine) and 1*10^−6 M-1*10^−8 M (glutaminyl thiazolidine) respectively were admixed with 50 μL glycylprolyl-4-nitroaniline in different concentrations (0.4 mM, 0.2 mM, 0.1 mM, 0,05 mM) and 100 μl HEPES (40 mM, pH7.6; ion strength=0.125). The assay mixture was pre-incubated at 30 ° C. for 30 min. After pre-incubation, 20 μL DPIV (1:600 diluted) were added and measurement of yellow color development due to 4-nitroaniline release was performed at 30° C. and λ=405 nm for 10 min using a plate reader (HTS7000 plus, Applied Biosystems, Weiterstadt, Germany). The Ki-values were calculated using Graphit 4.0.15 (Erithacus Software, Ltd, UK) based on a competitive inhibition of DPIV by glutaminyl pyrrolidine or glutaminyl thiazolidine.
# [2] = target: T2, DPIV (N-terminal Xaa-Pro releasing activity) in human plasma (Homo sapiens, UniProt P27487); experiment: Ki-determination in human plasma
# T2 construct: Human plasma contains N-terminal Xaa-Pro releasing activity; from tissue; host or cells: human plasma
# Protocol: Human plasma contains N-terminal Xaa-Pro releasing activity. 70 μL glutaminyl pyrrolidine or glutaminyl thiazolidine in an concentration range of 1*10^−5 M -1*10^−7 M (glutaminyl pyrrolidine) and 1*10^−6 M-1*10^−8 M (glutaminyl thiazolidine) respectively were admixed with 50 μL glycylprolyl-4-nitroaniline in different concentrations (0.4 mM, 0.2 mM, 0.1 mM, 0,05 mM) and 100 μl HEPES (40 mM, pH7.6). The assay mixture was pre-incubated at 30 ° C. for 5 min and 22 hours respectively. After pre-incubation, 50 μL human plasma were added and measurement of yellow color development due to 4-nitroaniline release was performed at 30° C. and λ=405 nm for 10 min using a plate reader ([HTS7000 plus, Applied Biosystems, Weiterstadt, Germany). The Ki-values were calculated using Graphit 4.0.15 (Erithacus Software, Ltd, UK) based on a competitive inhibition of DPIV by glutaminyl pyrrolidine or glutaminyl thiazolidine.
# [3] = target: T3, Dipeptidyl Peptidase I (cathepsin C) (Rattus norvegicus, UniProt P80067); experiment: Cross reacting enzymes: dipeptidyl peptidase I; settings: concentration range 1*10^−5 M-1*10^−7 M
# T3 construct: purchased Qiagen GmbH, Hilden, Germany
# T3 sequence (P80067 25-462): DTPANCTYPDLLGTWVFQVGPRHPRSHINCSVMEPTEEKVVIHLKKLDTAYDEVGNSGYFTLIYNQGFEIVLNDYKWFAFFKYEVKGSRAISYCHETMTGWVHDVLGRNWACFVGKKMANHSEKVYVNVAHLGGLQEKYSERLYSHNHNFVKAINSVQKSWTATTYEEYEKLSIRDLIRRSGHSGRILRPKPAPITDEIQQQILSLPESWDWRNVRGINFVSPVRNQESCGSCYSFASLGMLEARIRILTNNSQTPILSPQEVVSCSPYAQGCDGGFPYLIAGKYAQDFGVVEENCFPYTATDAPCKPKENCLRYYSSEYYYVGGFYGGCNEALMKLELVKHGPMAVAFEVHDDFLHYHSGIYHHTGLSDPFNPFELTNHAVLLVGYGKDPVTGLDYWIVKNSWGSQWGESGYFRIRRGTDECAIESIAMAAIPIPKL
# Protocol: Glutaminyl pyrrolidine or glutaminyl thiazolidine were tested for their cross reacting potency against dipeptidyl peptidase I, prolyl oligopeptidase and prolidase.
# DP I or cathepsin C is a lysosomal cysteine protease which cleaves dipeptides from the N-terminus of their substrates (Gutman, H. R. & Fruton, J. S., 1948, J Biol. Chem., 174, 851-858). It is classified as a cysteine protease. The enzyme used was purchased from Qiagen (Qiagen GmbH, Hilden, Germany). In order to get a fully active enzyme, the enzyme was diluted 1000 fold in MES buffer pH5.6 (40 mM MES, 4 mM DTT, 4 mM KCl, 2 mM EDTA, 0.015% Brij) and pre-incubated for 30 min at 30° C. 50 μL glutaminyl pyrrolidine or glutaminyl thiazolidine in a concentration range of 1*10^−5 M-1*10^−7 M were admixed with 110 μL buffer-enzyme-mixture. The assay mixture was pre-incubated at 30° C. for 15 min After pre-incubation, 100 μL histidylseryl-para-nitroanilide (2*10^−5 M) were added and measurement of yellow color development due to para-nitroaniline release was performed at 30° C. and […] for 10 min, using a plate reader (HTS7000 plus, Applied Biosystems, Weiterstadt, Germany). The IC50-values were calculated using Graphit 4.0.15 (Erithacus Software, Ltd., UK). No inhibition of the DP I enzyme activity by glutaminyl pyrrolidine or glutaminyl thiazolidine was found.
# T2 sequence (P27487 39-766 limits assumed): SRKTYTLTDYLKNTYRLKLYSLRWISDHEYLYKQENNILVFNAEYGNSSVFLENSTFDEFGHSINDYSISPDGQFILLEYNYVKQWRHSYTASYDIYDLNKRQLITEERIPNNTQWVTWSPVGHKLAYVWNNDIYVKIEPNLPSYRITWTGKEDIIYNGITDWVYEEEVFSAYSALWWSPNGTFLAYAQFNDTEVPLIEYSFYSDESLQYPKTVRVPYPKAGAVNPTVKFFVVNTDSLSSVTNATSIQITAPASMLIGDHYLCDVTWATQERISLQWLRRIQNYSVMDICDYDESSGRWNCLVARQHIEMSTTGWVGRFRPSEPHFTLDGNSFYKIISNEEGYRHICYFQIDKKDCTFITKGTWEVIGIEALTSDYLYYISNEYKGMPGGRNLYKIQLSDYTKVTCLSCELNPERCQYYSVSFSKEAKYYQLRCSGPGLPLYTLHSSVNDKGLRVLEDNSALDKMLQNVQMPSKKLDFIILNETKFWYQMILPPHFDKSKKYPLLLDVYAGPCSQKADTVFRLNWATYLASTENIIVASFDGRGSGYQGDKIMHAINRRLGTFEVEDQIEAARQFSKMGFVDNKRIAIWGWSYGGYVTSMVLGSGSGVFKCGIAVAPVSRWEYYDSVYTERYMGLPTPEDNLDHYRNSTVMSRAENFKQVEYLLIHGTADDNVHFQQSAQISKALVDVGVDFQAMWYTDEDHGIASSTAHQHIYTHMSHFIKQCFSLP
# T1 sequence (P22411 whole entry): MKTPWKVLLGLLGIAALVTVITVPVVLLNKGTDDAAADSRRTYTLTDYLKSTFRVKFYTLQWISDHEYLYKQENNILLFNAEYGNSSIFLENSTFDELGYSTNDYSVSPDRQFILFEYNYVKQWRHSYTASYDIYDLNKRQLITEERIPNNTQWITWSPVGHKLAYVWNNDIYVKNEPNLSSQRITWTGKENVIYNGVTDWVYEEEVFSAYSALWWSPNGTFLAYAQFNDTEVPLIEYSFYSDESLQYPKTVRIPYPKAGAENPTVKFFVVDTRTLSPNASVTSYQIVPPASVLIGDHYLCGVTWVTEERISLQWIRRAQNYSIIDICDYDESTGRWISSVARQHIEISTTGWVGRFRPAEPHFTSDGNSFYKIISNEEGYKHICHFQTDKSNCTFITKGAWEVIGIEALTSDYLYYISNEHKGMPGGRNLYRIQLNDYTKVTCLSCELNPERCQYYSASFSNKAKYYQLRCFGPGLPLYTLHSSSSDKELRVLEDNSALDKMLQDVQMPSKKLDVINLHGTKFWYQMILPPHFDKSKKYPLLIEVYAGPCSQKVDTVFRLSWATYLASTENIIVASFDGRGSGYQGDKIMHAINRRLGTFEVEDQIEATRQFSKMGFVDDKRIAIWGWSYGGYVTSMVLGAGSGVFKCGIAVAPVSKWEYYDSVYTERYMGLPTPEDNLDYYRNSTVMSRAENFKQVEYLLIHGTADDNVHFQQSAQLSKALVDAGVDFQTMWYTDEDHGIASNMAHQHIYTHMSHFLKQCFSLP
Structure (SMILES),Ki [1],Ki ([2]; after 5 min pre-incubation),Ki ([2]; after 22 hours pre-incubation),inhibition of the DP I enzyme activity [3]
NC(=O)CC[C@H](N)C(=O)N1CCCC1 [glutaminyl pyrrolidine],1300 nM,1300 nM,1360 nM,No inhibition
NC(=O)CC[C@H](N)C(=O)N1CCSC1 [glutaminyl thiazolidine],312 nM,403 nM,513 nM,No inhibition
